The structures appear in SMILES notation. pIC50: −log10 of the molar value. Structures can show the parent of a compound that is named as a salt. Where two headings read alike, the source gives them in different places.

A word on the pIC50: it is −log10 of the IC50, conventionally taken in molar units.

The test system of series [1] is type I collagen α1 chain mRNA in WI-38 cells. Briefly: Type I collagen α1 chain mRNA expression inhibition test. To be noted: Homo sapiens, read-out: Inhibition rate (%) at 10 μmol/L. The format is cell-based. Summed up:
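Subconfluent WI-38 cells in DMEM with 0.4% FCS and 50 μg/mL ascorbic acid were given compound 1 h before TGF-β1 (1 ng/mL final). After 24 h, COL1A1 mRNA was quantified by SYBR real-time RT-PCR, normalised to GAPDH, and expressed relative to compound-free control (100%).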

The next series concerns SD-line male rats. Briefly: Repeated administration toxicity test in rat (oral administration, two weeks). The format is in vivo. To be noted: 1000 mg/kg, 5 rats per group, 80a and 1b as sodium salts. As to the method: As test compounds, the compounds of Examples 80a, 122a, 139a, 1b, 16b, and 19b were used. Note that the compounds of Examples 80a and 1b were used in the forms of sodium salts.
Each test compound was suspended in a 0.5% methylcellulose solution or distilled water to prepare a 100 mg/mL suspension. The suspension of the test compound was orally administered (10 mL/kg, test compound: 1000 mg/kg) to SD-line male rats (6-week-old, 5 rats for each group).

Series [2] relates to bleomycin-induced lung fibrosis (lung collagen amount). Briefly: Mouse bleomycin-induced lung fibrosis. To be noted: po, 672 h, read-out: lung collagen amount low compared with that of the control group. The format is in vivo, mice C57BL/6N. The method, then:
The test was conducted using 8- to 10.5-week-old male mice C57BL/6N (Charles River Laboratories Japan, Inc.). Bleomycin (Nippon Kayaku Co., Ltd.) was dissolved in physiological saline in a concentration of 1.0 or 1.5 mg/mL, and 2 μL/g thereof was intranasally administered to each mouse to evoke lung fibrosis. A test compound was dissolved or suspended in a 10% aqueous solution of polyoxyethylene castor oil (trade name: Cremophor EL) or in water and orally administered in an amount of 10 mg/kg twice a day from the 14th to the 28th day from the evocation. In a control group, a 10% aqueous solution of polyoxyethylene castor oil or water was administered in the same manner. The lung was extracted from each mouse on the 28th day from the evocation, and collagen was quantitatively measured. The extracted lung was homogenized in a 0.5 mol/L aqueous solution of acetic acid containing a protease inhibitor cocktail (Complete, EDTA-free, Roche Diagnostics) in an amount of one tablet/50 mL, and water-soluble collagen was extracted in the presence of 10 mg/mL pepsin (Sigma) overnight. The amount of collagen was measured using a kit (Sircol Soluble Collagen assay kit, Biocolor).
The inhibition rate was determined by the following expression: Inhibition rate (%)=[1−(lung collagen amount in test compound administration group)/(lung collagen amount in control group)]×100

A further series addresses T1, CYP2C9 (Homo sapiens, UniProt P11712).
T1 construct: Pooled human liver microsome was used, and tolbutamide was used as a substrate; from tissue; host or cells: pooled human liver microsomes
The series is described as follows: Hepatic drug-metabolizing enzyme inhibitory activity in humans (CYP2C9). The format is in vitro ADME. The note with it: pooled human liver microsome, tolbutamide 200 μmol/L, 37° C., 30 minutes; 80a as free base; read-out: IC50 (CYP2C9, tolbutamide metabolite). The method, then:
As test compounds, the compounds of Examples 80a, 83a, 108a, 117a, 123a, 128a, 139a, 142a, and 143a were used. Note that the compound of Example 80a was used in the form of free base.
Pooled human liver microsome was used, and tolbutamide was used as a substrate. The reaction was performed in a phosphate buffer (100 mmol/L, pH 7.4), and the final concentrations in the reaction system were adjusted to 0.5 mg/mL of human liver microsome protein, 200 μmol/L of the substrate, 1.55 mmol/L of oxidized nicotinamide adenine dinucleotide phosphate (NADP+), 3.3 mmol/L of glucose-6-phosphate, 3.3 mmol/L of magnesium chloride, and 0.4 Units/mL of glucose-6-phosphate dehydrogenase (G6PDH). The final concentration of each compound in the reaction solution was adjusted to 0.08 to 50 μg/mL. These reaction solutions were each subjected to reaction at 37° C. for 30 minutes. The reaction was terminated with an equal amount of acetonitrile. After centrifugation, the concentration of a tolbutamide metabolite in the supernatant was quantitatively measured by LC-MS/MS. The inhibitory activity was determined as IC50. As a positive control, sulfaphenazole was used.

For series [3] the following is noted: side effect, clinical, Non Patent Document 3; cited from earlier work.
Setting [4] is: 10 μmol/L test compound, WI-38 cells, TGF-β1 1 ng/mL, 24 hours, Table 4b.
Where [5] appears, read: orally 10 mg/kg twice a day, 14th to 28th day, lung on 28th day, 23a, 1b, 7c as sodium salts, 122a, 143a as hydrochloric acid salts.

T1 sequence (P11712 whole entry): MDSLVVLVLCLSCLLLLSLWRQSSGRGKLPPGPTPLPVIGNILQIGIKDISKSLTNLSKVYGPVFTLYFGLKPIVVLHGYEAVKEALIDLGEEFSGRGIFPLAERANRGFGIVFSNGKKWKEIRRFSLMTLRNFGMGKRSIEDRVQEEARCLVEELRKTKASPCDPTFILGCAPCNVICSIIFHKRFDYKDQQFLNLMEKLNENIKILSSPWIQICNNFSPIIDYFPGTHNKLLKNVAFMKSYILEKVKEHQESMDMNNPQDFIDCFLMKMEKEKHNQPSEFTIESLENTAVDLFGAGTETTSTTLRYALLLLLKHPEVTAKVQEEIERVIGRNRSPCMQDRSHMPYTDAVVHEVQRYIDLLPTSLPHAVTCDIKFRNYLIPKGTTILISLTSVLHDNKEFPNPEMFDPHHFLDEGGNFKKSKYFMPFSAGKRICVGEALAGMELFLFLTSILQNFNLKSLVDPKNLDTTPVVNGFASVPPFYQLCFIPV

Regarding `O=C(Nc1cc(-c2ccccc2)ccc1C(=O)O)c1cncc(-c2ccccc2)c1` [1b, 4-phenyl-2-(5-phenylpyridine-3-carboxamido)benzoic acid], the inhibition at 10 µM in series [1] (setting [4]) was 72%. The “survival on the 14th day from the administration” value (from here on “survival on the 14th day”) with SD-line male rats is listed as “all rats survived”. In series [2] (setting [5]), the inhibition in vivo at 10 mg/kg was no less than 30%.

As for `CCNc1ccccc1-c1ccc(C(=O)[O-])c(NC(=O)c2cncc(-c3ccccc3)c2)c1.[Na+]` [16b, sodium 4-(2-(ethylamino)phenyl)-2-(5-phenylpyridine-3-carboxamido)benzoate], the inhibition at 10 µM in series [1] (setting [4]) was found to be 84%. For the same molecule, the “survival on the 14th day” value in the series on SD-line male rats is “all rats survived”. Also, the inhibition in vivo at 10 mg/kg in series [2] (setting [5]) was no less than 30%.

As for `O=C(Nc1cc(-c2ccco2)ccc1C(=O)[O-])c1cncc(-c2ccccc2)c1.[Na+]` [19b, sodium 4-(furan-2-yl)-2-(5-phenylpyridine-3-carboxamido)benzoate], the inhibition at 10 µM in series [1] (setting [4]) came out at 90%. Further, the “survival on the 14th day” value in the series with SD-line male rats is listed as “all rats survived”. In series [2] (setting [5]), the inhibition in vivo at 10 mg/kg is no less than 30%.

As to `O=C(Nc1cc(-c2ccccc2)ccc1C(=O)O)c1cc(N2CCCCC2)ccc1O` [Example 80a, 2-(2-hydroxy-5-(piperidin-1-yl)benzamido)-4-phenylbenzoic acid hydrochloride], in series [1] (WI-38, 24 h), the inhibition at 10 µM stood at 95%. The “survival on the 14th day” value in the series with SD-line male rats is listed as “all rats survived”. Also, the inhibition in vivo at 10 mg/kg in series [2] is no less than 30%. The pIC50 on CYP2C9 was less than 3.92.

As for `CN1CCN(Cc2ccc(O)c(C(=O)Nc3cc(-c4ccccc4)ccc3C(=O)O)c2)CC1` [Example 122a, 2-(2-hydroxy-5-((4-methylpiperazin-1-yl)methyl)benzamido)-4-phenylbenzoic acid dimethanesulfonate], the inhibition at 10 µM in series [1] (10 μmol/L test compound, WI-38 cells, TGF-β1 1 ng/mL, 24 hours, Table 4a) came out at 88%. Besides, the “survival on the 14th day” value in the series with SD-line male rats was “all rats survived”. The inhibition in vivo at 10 mg/kg in series [2] (setting [5]) was no less than 30%.

On to `O=C(Nc1cc(-c2ccccc2)ccc1C(=O)O)c1cc(OCCN2CCOCC2)ccc1O` [Example 139a, 2-(2-hydroxy-5-(2-(morpholin-4-yl)ethoxy)benzamido)-4-phenylbenzoic acid hydrochloride], for which, in series [1] (WI-38, 24 h), the inhibition at 10 µM was determined as 85%. Further, in the series with SD-line male rats, the “survival on the 14th day” value is on record as “all rats survived”. Besides, at CYP2C9, the negative logarithm of the IC50 (pIC50) is less than 3.97.

In the case of `Cc1ccc(=O)n(-c2ccccc2)c1` [pirfenidone, Pirfenidone], in series [3], the photosensitivity in subjects was 87.9%.

The values above are taken from patent US8492582B2, “N-acyl anthranilic acid derivative or salt thereof” (Toyama Chemical Co., Ltd., priority 2009, dated 2013).
